One test addresses T1, CCK-1 receptor (Homo sapiens, UniProt P32238).
T1 construct: expressed in transfected cells; host or cells: CHO-K1
T1 sequence (P32238 1-428): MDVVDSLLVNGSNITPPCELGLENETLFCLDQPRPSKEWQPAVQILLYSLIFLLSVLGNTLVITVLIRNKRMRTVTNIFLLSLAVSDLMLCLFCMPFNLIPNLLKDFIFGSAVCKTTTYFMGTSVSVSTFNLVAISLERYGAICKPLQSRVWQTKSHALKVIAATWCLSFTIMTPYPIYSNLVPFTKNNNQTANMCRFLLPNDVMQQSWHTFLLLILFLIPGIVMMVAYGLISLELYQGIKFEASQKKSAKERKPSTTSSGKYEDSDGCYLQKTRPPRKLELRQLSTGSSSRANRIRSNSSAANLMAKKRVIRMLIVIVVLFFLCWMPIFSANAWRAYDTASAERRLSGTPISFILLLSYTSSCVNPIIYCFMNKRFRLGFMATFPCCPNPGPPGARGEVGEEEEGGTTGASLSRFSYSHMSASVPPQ
The test is described as follows: CCK1 binding assay ([125I]-BH-CCK-8S displacement, CHO-K1 membranes). The note with it: membranes of CHO-K1 cells stably transfected with the CCK-1 receptor, 20 pM [125I]-BH-CCK-8S, 0.3 μM PD-134,308 present, 60 min at 21±3° C.; for Ki: read-out: CCK1 pKi (converted). Put shortly:
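Membranes from CHO-K1 cells stably expressing CCK-1 incubated 1 h at 21±3° C with 20 pM [125I]-BH-CCK-8S in HEPES buffer pH 7.2 containing 0.3 μM PD-134,308 to block CCK-2. Bound radioactivity read by gamma counting after filtration. pKi derived via Cheng-Prusoff, with specific binding defined using 2-NAP.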

The target of the next test is T2, CCK2 receptor (Homo sapiens, UniProt P32239).
T2 construct: analyzed for ZFP expression as well as CCK2R induction upon addition of doxycycline to the culture medium; endogenous in cells
T2 sequence (P32239 1-447): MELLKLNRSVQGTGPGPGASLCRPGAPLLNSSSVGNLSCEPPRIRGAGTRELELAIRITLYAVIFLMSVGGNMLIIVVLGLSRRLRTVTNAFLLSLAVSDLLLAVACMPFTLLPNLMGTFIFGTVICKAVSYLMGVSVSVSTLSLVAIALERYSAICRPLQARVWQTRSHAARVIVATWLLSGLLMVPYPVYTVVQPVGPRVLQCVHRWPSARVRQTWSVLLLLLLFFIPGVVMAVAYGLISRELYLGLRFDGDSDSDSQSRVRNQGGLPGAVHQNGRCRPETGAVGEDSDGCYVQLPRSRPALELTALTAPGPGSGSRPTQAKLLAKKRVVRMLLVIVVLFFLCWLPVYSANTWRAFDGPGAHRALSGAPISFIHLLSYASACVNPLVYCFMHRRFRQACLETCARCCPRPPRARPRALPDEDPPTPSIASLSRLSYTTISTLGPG
The test is described as follows: CCK2 binding assay ([125I]-BH-CCK-8S displacement, HEKZFP membranes). The note with it: membranes of doxycycline-induced HEKZFP cells, 20 pM [125I]-BH-CCK-8S, 60 min at 21±3° C.; for Ki: read-out: CCK2 pKi (converted).

As for `O=C(O)C[C@@H](Cc1ccc(Cl)c(Cl)c1)NC(=O)c1ccc(Cl)cc1NS(=O)(=O)c1cccc2nccnc12` [Example 82, (R)-3-[4-Chloro-2-(quinoxaline-5-sulfonylamino)-benzoylamino]-4-(3,4-dichloro-phenyl)-butyric acid], the Ki at CCK-1 receptor is 794 nM; at CCK2 receptor, 7940 nM.
For `O=C(N[C@@H](Cc1ccc(Cl)cc1)C(=O)O)c1cc(Cl)ccc1NS(=O)(=O)c1cccc2nsnc12` [Example 83, (S)-2-[2-(Benzo[1,2,5]thiadiazole-4-sulfonylamino)-5-chloro-benzoylamino]-3-(4-chloro-phenyl)-propionic acid], the Ki is 1580 nM on CCK-1 receptor and 251 nM on CCK2 receptor.
On the same counts, the results for `COC(=O)C[C@H](Cc1ccc(Cl)cc1)NC(=O)c1ccc(Cl)cc1NS(=O)(=O)c1cccc2nccnc12` [Example 88, (S)-4-(4-Chloro-phenyl)-3-[4-chloro-2-(quinoxaline-5-sulfonylamino)-benzoylamino]-butyric acid methyl ester] are 6310 nM and 631 nM.
Regarding `O=C(O)C[C@H](Cc1ccc(Cl)cc1)NC(=O)c1ccc(Cl)cc1NS(=O)(=O)c1cccc2nccnc12` [Example 89, (S)-4-(4-Chloro-phenyl)-3-[4-chloro-2-(quinoxaline-5-sulfonylamino)-benzoylamino]-butyric acid], the Ki at CCK-1 receptor was 7940 nM; at CCK2 receptor, 63.1 nM.
On the same counts, the results for `O=C(N[C@@H](Cc1ccc(Cl)cc1)C(=O)O)c1ccc(I)cc1NS(=O)(=O)c1cccc2nccnc12` [Example 90, (S)-3-(4-Chloro-phenyl)-2-[4-iodo-2-(quinoxaline-5-sulfonylamino)-benzoylamino]-propionic acid] are 1260 nM and 31.6 nM.
On the same counts, the results for `O=C(N[C@@H](Cc1ccc(Cl)c(Br)c1)C(=O)O)c1ccc(I)cc1NS(=O)(=O)c1cccc2nsnc12` [Example 91, (S)-2-[2-(Benzo[1,2,5]thiadiazole-4-sulfonylamino)-4-iodo-benzoylamino]-3-(3-bromo-4-chloro-phenyl)-propionic acid] are 79.4 nM and 15.8 nM.
For `O=C(N[C@@H](Cc1ccc(Cl)c(I)c1)C(=O)O)c1ccc(I)cc1NS(=O)(=O)c1cccc2nsnc12` [Example 92, (S)-2-[2-(Benzo[1,2,5]thiadiazole-4-sulfonylamino)-4-iodo-benzoylamino]-3-(4-chloro-3-iodo-phenyl)-propionic acid], the Ki was 63.1 nM at CCK-1 receptor and 31.6 nM at CCK2 receptor.
Regarding `O=C(N[C@@H](Cc1ccc(F)c(Br)c1)C(=O)O)c1ccc(I)cc1NS(=O)(=O)c1cccc2nsnc12` [Example 93, (S)-2-[2-(Benzo[1,2,5]thiadiazole-4-sulfonylamino)-4-iodo-benzoylamino]-3-(3-bromo-4-fluoro-phenyl)-propionic acid], the “CCK1 pKi” value at CCK-1 receptor came to 6.8. Besides, the “CCK2 pKi” value at CCK2 receptor is 8.3.
`O=C(N[C@H](C(=O)O)C(c1ccc(Cl)cc1)c1ccc(Cl)cc1)c1ccc(I)cc1NS(=O)(=O)c1cccc2nsnc12` [Example 94, (S)-2-[2-(Benzo[1,2,5]thiadiazole-4-sulfonylamino)-4-iodo-benzoylamino]-3,3-bis-(4-chloro-phenyl)-propionic acid]: the figures for the Ki at CCK-1 receptor and on CCK2 receptor were 6310 nM and 1000 nM, respectively.
For the compound `CC(C)(c1ccc(Cl)cc1)[C@H](NC(=O)c1ccc(I)cc1NS(=O)(=O)c1cccc2nsnc12)C(=O)O` [Example 95, (S)-2-[2-(Benzo[1,2,5]thiadiazole-4-sulfonylamino)-4-iodo-benzoylamino]-3-(4-chloro-phenyl)-3-methyl-butyric acid], the Ki on CCK-1 receptor is 3160 nM; at CCK2 receptor, 794 nM.
In the same order, the values of `C[C@@H](NC(=O)c1ccc(I)cc1NS(=O)(=O)c1cccc2nsnc12)[C@@H](O)c1ccc(Cl)cc1` [Example 99, 2-(Benzo[1,2,5]thiadiazole-4-sulfonylamino)-N-[(2S,1R)-2-(4-chloro-phenyl)-2-hydroxy-1-methyl-ethyl]-4-iodo-benzamide] are 79.4 nM and 794 nM.
As to `C[C@@H](NC(=O)c1ccc(I)cc1NS(=O)(=O)c1cccc2nsnc12)[C@@H](O)c1cccc(Br)c1` [Example 101, 2-(Benzo[1,2,5]thiadiazole-4-sulfonylamino)-N-[(2S,1R)-2-(3-bromo-phenyl)-2-hydroxy-1-methyl-ethyl]-4-iodo-benzamide], the results for the Ki at CCK-1 receptor and at CCK2 receptor were 39.8 nM and 794 nM, respectively.
Regarding `CC(C)(c1ccc(Cl)cc1)[C@H](NC(=O)c1ccc(Cl)cc1NS(=O)(=O)c1cccc2nsnc12)C(=O)O` [Example 107, (S)-2-[2-(Benzo[1,2,5]thiadiazole-4-sulfonylamino)-4-chloro-benzoylamino]-3-(4-chloro-phenyl)-3-methyl-butyric acid], the “CCK1 pKi” value on CCK-1 receptor is 5.4. Besides, the Ki on CCK2 receptor is 794 nM.
As for `C[C@@H](NC(=O)c1ccc(Cl)cc1NS(=O)(=O)c1cccc2nsnc12)[C@@H](O)c1cccc(Br)c1` [Example 108, 2-(Benzo[1,2,5]thiadiazole-4-sulfonylamino)-N-[(2S,1R)-2-(3-bromo-phenyl)-2-hydroxy-1-methyl-ethyl]-4-chloro-benzamide], at CCK-1 receptor, the “CCK1 pKi” value is 7.6. The “CCK2 pKi” value at CCK2 receptor is given as 5.9.
On to `O=C(N[C@H](Cc1cccc(Br)c1)C(=O)O)c1ccc(I)cc1NS(=O)(=O)c1cccc2nsnc12` [Example 115, (R)-2-[2-(Benzo[1,2,5]thiadiazole-4-sulfonylamino)-4-iodo-benzoylamino]-3-(3-bromo-phenyl)-propionic acid], for which the Ki was 398 nM at CCK-1 receptor and 79.4 nM on CCK2 receptor.
On the same counts, the results for `COC(=O)[C@@H](NC(=O)c1ccc(I)cc1NS(=O)(=O)c1c(F)cccc1F)[C@H](C)c1ccc(Cl)c(Cl)c1` [Example 116, (2S,3R)-3-(3,4-Dichloro-phenyl)-2-[2-(2,6-difluoro-benzenesulfonylamino)-4-iodo-benzoylamino]-butyric acid methyl ester] are 126 nM and 2000 nM.
In the same order, the values of `O=C(N[C@@H](Cc1ccc(Cl)c(Cl)c1)C(=O)O)c1ccc(Cl)cc1NS(=O)(=O)c1c(F)cccc1F` [Example 119, (S)-2-[4-Chloro-2-(2,6-difluoro-benzenesulfonylamino)-benzoylamino]-3-(3,4-dichloro-phenyl)-propionic acid] are 501 nM and 200 nM.
For `O=C(N[C@H](Cc1ccc(Cl)c(Cl)c1)C(=O)O)c1ccc(Cl)cc1NS(=O)(=O)c1c(F)cccc1F` [Example 120, (R)-2-[4-Chloro-2-(2,6-difluoro-benzenesulfonylamino)-benzoylamino]-3-(3,4-dichloro-phenyl)-propionic acid], the Ki on CCK-1 receptor is 79.4 nM; on CCK2 receptor it was 1000 nM.
On the same counts, the results for `COC(=O)[C@H](Cc1ccc(Cl)c(Br)c1)NC(=O)c1ccc(I)cc1NS(=O)(=O)c1cccc2nsnc12` [Example 122, (S)-2-[2-(Benzo[1,2,5]thiadiazole-4-sulfonylamino)-4-iodo-benzoylamino]-3-(3-bromo-4-chloro-phenyl)-propionic acid methyl ester] are 158 nM and 398 nM.
On the same counts, the results for `COC(=O)[C@H](Cc1ccc(F)c(Br)c1)NC(=O)c1ccc(I)cc1NS(=O)(=O)c1cccc2nsnc12` [Example 123, (S)-2-[2-(Benzo[1,2,5]thiadiazole-4-sulfonylamino)-4-iodo-benzoylamino]-3-(3-bromo-4-fluoro-phenyl)-propionic acid methyl ester] are 100 nM and 158 nM.
On the same counts, the results for `COC(=O)[C@H](Cc1ccc(F)c(Br)c1)NC(=O)c1ccc(I)cc1NS(=O)(=O)c1cccc2nccnc12` [Example 124, (S)-3-(3-Bromo-4-fluoro-phenyl)-2-[4-iodo-2-(quinoxaline-5-sulfonylamino)-benzoylamino]-propionic acid methyl ester] are 316 nM and 50.1 nM.

Source of the values: patent US7855292B2, “Sulfonamide compounds” (Janssen Pharmaceutica NV, priority 2004, dated 2010).
